Source: US8637679B2, “Process for the isolation of organic compounds useful for the treatment of cancer” (Council of Scientific and Industrial Research, priority 2011, dated 2014)

Legend:
SW480 = assay: MTT cell viability assay, SW480; format: cell-based, human; conditions: Homo sapiens; SW480, 48 hrs
Description: (§1) Human cervical cancer cell lines (HeLa, ME-180 and SiHa), brain tumor cell lines (U87MG, U373MG, U87MG EGFRvIII, T98G, A172 and LN229), lymphoid leukemia (MOLT-3, MOLT-4, REH and CEMC-7), myloid leukemia (K562), pancreatic cancer (MIAPaCa-2, AsPC-1, Panc-1 and Panc 10.05), lung cancer (A549) and colon cancer (HCT116 and SW480) cell lines from American Type Culture Collection, Manassas, Va., USA were grown in IMDM or RPMI (cell specific) Medium supplemented with 10% fetal bovine serum and 1% antibiotic-antimycotic. Cells were cultured in 37° C. in an atmosphere of 5% CO2.
(§2) Viability of cancer cell lines after treatment as at the indicated times was determined by MTT assay. Briefly, 10,000 cells were plated in triplicate in 96 well plates and incubated for 24 and 48 hours in complete media in presence of varying dose of mahanine (0-50 μM). 100 ug MTT was added in each well. Incubate the plate for 1-4 hours at 37° C. and humidified 5% CO2 atmosphere. Absorbance was recorded at 550 nm with 96 well plate readers.

U373MG = assay: MTT cell viability assay, U373MG; format: cell-based, human; conditions: Homo sapiens, U373 MG, 48 hrs
Description: as §1, §2

HCT116 = assay: MTT cell viability assay, HCT116; format: cell-based, human; conditions: Homo sapiens, HCT-116; HCT116, 48 hrs
Description: as §1, §2

Molt-3 = assay: MTT cell viability assay, Molt-3; format: cell-based, human; conditions: Homo sapiens; Molt-3, 48 hrs
Description: as §1, §2

Hsp90-Cdc37 complex = assay: Co-immunoprecipitation of Hsp90-Cdc37 complex; format: cell-based, human
Description: Different human cancer cells (1×10^6 cells) were incubated with complete medium alone or with different dose of Mahanine (10-20 μM) as indicated. Cells were detached using trypsin-EDTA solution. They were collected by centrifugation at 1500 g for 10 mins and lysed by sonication. Aliquots containing 60 μg total cellular protein were separated by 10% SDS-PAGE and transferred to nitrocellulose membrane (MILIPORE, Bedford, Mass., USA). Membrane was blocked with blocking buffer for 1 hour at room temperature and probed with desired primary antibody Hsp90, Hsp70, Hsp40, p23, HOP, Cdc37, B-Raf, Stat-3, Bcl-xl, Akt, PARP, β-actin (Cell signaling technology, USA) and caspase-3 (Santa Cruz, USA), caspase9, cytochrome c (cell signaling technology, USA) for overnight at 4° C. followed by HRP conjugated secondary antibody and detected by ECL. For the detection of association of the Hsp90-Cdc37, Hsp90-p23 and Hsp90-HOP, total cell lysate (400 μg) was treated with anti-Hsp-90 antibody (1:100 dilutions) and incubated overnight at 4° C. The chaperonic complex was resolved by SDS-PAGE (10%), transferred and probed separately with anti-Cdc37, anti-HOP, anti-p23 and anti-Hsp-90 antibodies. In the few immunoprecipitation experiments anti-Cdc37 used as precipitating antibody and Hsp90 was used as detection antibody. For the proteasomal inhibition assay cells were pretreated with 10 μM MG132 for 1 hr and then cells are exposed in 20 μM mahanine for 24 hrs. For proteasomal inhibition assay at 6 hrs incubation in MIAPaCa-2, cells were pre-incubated with 20 μM MG132 for 1 hr and then cells were exposed in 30 μM mahanine.

In vivo toxicity in mice = assay: In vivo toxicity in mice
Description: Animals were examined for 1 month after the administration of acute toxic dose (150 mg/kg/day); there was no change in behavior, feeding habit, total body mass and in number of biochemical and haematological parameters.

Panc1 = assay: MTT cell viability assay, Panc1; format: cell-based, human; conditions: Homo sapiens, PANC-1; Panc1, 48 hrs
Description: as §1, §2

A172 = assay: MTT cell viability assay, A172; format: cell-based, human; conditions: Homo sapiens, A 172; A172, 48 hrs
Description: as §1, §2

[1] = system: orthotopic pancreatic tumour; assay: Orthotopic pancreatic tumour model; format: in vivo; conditions: athymic nude mice
HeLa = assay: MTT cell viability assay, HeLa; format: cell-based, human
Description: as §1, §2

[2] = In vivo bioavailability after oral feeding; design: species or system Balb/c mice; conditions: after oral administration
Description: EtOAc extract of Murraya koenigii was orally feeded to normal healthy Balb/c (100 mg/kg body weight) and blood was collected from retro orbital plexus after 30 min interval by glass capillary. Control blood was collected from the mice before the […] of extract. The Institutional Animal Ethical Committee had approved the study. Blood serum was isolated and the serum protein was separated by centrifugation in ice-cold acetone. Supernatant was evaporated to dryness and residual part was dissolved in minimum volume of MeOH and injected into the HPLC column.

In the case of `CC(C)=CCCC1(C)C=Cc2c(c(C)cc3c2[nH]c2cc(O)ccc23)O1` (stereo not shown) [Mahanine, mahanine], the IC50 (SW480) is reported as 16 ± 0.3 µM, the IC50 (U373MG) is reported as 16.8 ± 0.6 µM and the IC50 (HCT116) is reported as 13.5 ± 0.8 µM. For the same compound, the IC50 (Molt-3) was 10.6 ± 0.3 µM, the “dose needed to initiate dissociation of Hsp90-Cdc37” value (Hsp90-Cdc37 complex; HeLa, 24 hr) was 17.5 µM and the “dose adequate to begin Hsp90-Cdc37 dissociation” value (Hsp90-Cdc37 complex; MIAPaCa2, 24 hr) was 12.5 µM. The “dose showing significant decrease of association of Hsp90-Cdc37 complex” value (Hsp90-Cdc37 complex; U87MG, 24 hr) was 15 µM, the Creatinine (In vivo toxicity in mice; mouse, in vivo) was 3.72 mg/dL and the Hb (In vivo toxicity in mice; mouse, in vivo) was 13.64 gm/dl. For the same compound, the SGOT (In vivo toxicity in mice; mouse, in vivo) was 174.0 Unit/ml, the SGPT (In vivo toxicity in mice; mouse, in vivo) was 34.7 Unit/ml and the Urea (In vivo toxicity in mice; mouse, in vivo) was 48.6 mg/dL. For the same compound, the tolerated dose (In vivo toxicity in mice; normal Balb/c mice, consecutive 20 days) was 150 mg/kg/day, the IC50 (Panc1) was 16.5 ± 0.2 µM and the IC50 (A172) was 11.6 ± 1 µM. For the same compound, the “orthotopic pancreatic tumour growth” value [1] was “tumour growth inhibition”, the IC50 (HeLa; 48 hrs) was 13.2 ± 1.1 µM and the IC50 (HeLa; Homo sapiens, 48 h) was 10.9 µM. For the same compound, the “secondary metabolites in blood (mass spectroscopy)” value [2] was “no production of secondary metabolites”.
